Laboratory results as given in US20140057884A1, “PHARMACEUTICAL COMPOSITION FOR PREVENTING OR TREATING LIVER CANCER COMPRISING STIGMASTEROL AND 5 BETA-HYDROXYSITOSTANOL ISOLATED FROM NAVICULA INCERTA” (PUKYONG NATIONAL UNIVERSITY INDUSTRY-UNIVERSITY CO, priority 2012, published 2014).
Like-named read-outs stand apart in the source and are kept apart here.

Columns and labels:
Type in all cases: cell-based, human
[1] = test system: HepG2 cells; assay: Observation of morphological changes of the cells (light microscope; fluorescence microscope after Hoechst 33342 staining); conditions: 24 h; for shape of the attached HepG2 cells / number of attached cells (living cells): light microscope; for nuclei of the attached HepG2 cells: increasing concentrations (5, 10, 20 μM), Hoechst 33342, fluorescence microscope; for number of attached cells (living cells): increasing doses
Protocol: HepG2 ells were grown in 12-well plates at a density of 2×10^4 cells/well. After overnight incubation, cells were treated with different concentrations ([…], 20 μM) of stigmasterol and 5β-hydroxysitostanol and incubated for another 24 h. The cells were washed with PBS. After washing, 4% (v/v) formaldehyde solution was dissolved in PBS and added to the plate, and left for 1 h at room temperature. The fixed cells were detected by a light microscope.
Further, the HepG2 cells were grown in 12-well plates at a density of 2×10^4 cells/well. After overnight incubation, cells were treated with different concentrations (5 μM, 10 μM, 20 μM) of stigmasterol and 5β-hydroxysitostanol and incubated for another 24 h. The cells were then washed with PBS. After washing, 4% (v/v) formaldehyde solution was dissolved in PBS and added to the plate, and left for 1 h at room temperature so that cells were fixated. The fixed cells were stained with staining dye, Bisbenzimide Hoechst 33342 and left for 1 h at room temperature. The stained cells were observed under fluorescence microscope.

[2] = test system: HepG2 cells; assay: RT-PCR analysis of mRNA expression of apoptosis-related genes
Protocol: HepG2 cells treated with stigmasterol and 5β-hydroxysitostanol were treated with TRIzol® reagent were transferred to microtubes at each concentration. 200 μl, of chloroform was added to each tube and microtubes were centrifuged at 12,000×g for 15 min. After centrifugation, supernatant phase was transferred to a new microtube and mixed with isopropanol at the ratio of 1:1. After incubation for 10 min at room temperature and centrifugation at 12,000×g for 10 min, supernatant was discarded and RNA pellet was washed, followed by centrifugation at 12,000×g for 15 min. Following removal of ethanol, RNA pellet was suspended in DEPC-treated water and so that RNA pellet was dissolved at 55° C. for 10 min. Dissolved RNA pellet was kept at −20° C. for further experiments.
RT-PCR was performed to check specific mRNA expression in HepG2 cells.
Thirteen μg of RNA dissolved in DEPC— treated water and 2 μL of oligo (di) were added to PCR microtubes and denaturated at 70° C. for 5 min in a thermal cycler. Later, RT-PCR mastermix was added to microtubes to synthesize cDNA. Primers corresponding to specific RNA were bound to the synthesized cDNA, and gene amplification was carried out with the thermal cycler. The PCR products were electrophoresed on 1% agarose gel and bands of the respective primers were checked with UV.

[3] = test system: HepG2 cells; assay: Western blotting assay; conditions: HepG2 cells, 5, 10, 20 μM, 24 h, Western blot
Protocol: Western blotting assay was performed to investigate specific […] expression of HepG2 cells.
HepG2 cells were cultured at a density of 1×10^4 cells/ml in 10 cm^2 culture dishes for 24 h. The cells were then treated with different concentrations (5 μM, 10 μM, 20 μM) of stigmasterol and 5β-hydroxysitostanol for 24 h. The cells were lysed in cell lysis buffer to give protein extract. The extracted protein was separated by molecular weight using SDS electrophoresis. Corresponding antibodies were attached to intended protein and the protein bands were detected with ECL solution using LAS-3000 system.

[4] = test system: HepG2 cells; assay: Cell cycle analysis (PI staining, FACS); conditions: for G2/M phase of the cell cycle as the concentration increased: HepG2 cells, 5, 10, 20 μM; for G2/M phase of the cell cycle: HepG2 cells, highest concentration (20 μM)
Protocol: The HepG2 cells were cultured in 6 cm^2 dishes treated with different concentrations (5 μM, 10 μM, 20 μM) of stigmasterol and 5β-hydroxysitostanol. The cells were stained with propidium iodide (PI), and the cell cycle was analyzed by measuring the amount of DNA with FACS.

[5] = MTT cell viability assay; conditions: human
Protocol: (§1) Cell viability was measured using MTT [3-(4,5-dimethylthiazol-2-yl)-2,5-diphenyltetrazolium bromide] assay utilizing […] MTT is reduced to purple formazan by the action of mitochondrial dehydrogenase which has viability only in living cells.
(§2) The HepG2 cells were grown in 96-well plates at a density of 2×10^4 cells/well. After 24 h, cells were treated with different concentrations ([…], 20 μM) of stigmasterol and 5β-hydroxysitostanol. After incubation for 24 h, the cells were incubated with 100 μL of MTT (1 mg/mL) for 4 h. Finally, DMSO was added so that the amount of formazan crystal was determined by measuring the absorbance at 550 nm using a multidetection microplate reader.

[6] = test system: HepG2 cells; assay: MTT cell viability assay; conditions: for cell viability with increasing concentrations: HepG2 cells, 5-20 μM, 24 h
Protocol: as §1, §2

Row | SMILES | shape of the attached HepG2 cells [1] | nuclei of the attached HepG2 cells [1] | number of attached cells (living cells) [1] | expression of cell apoptosis inducing factors caspase-8, 9, Bax, p53, p21, FAS and FASL [2] | expression of cell apoptosis inhibiting factors Bcl-2 and XIAP [2] | expression of cell apoptosis inducing factors caspase-8, 9 [3] | G2/M phase of the cell cycle as the concentration increased [4] | G2/M phase of the cell cycle [4] [%] | cytotoxicity at 24 h, 5 μM ([5]; HepG2 cells, 5 μM, 24 h, MTT, read-out: inhibition of cell viability (rate)) [%] | cytotoxicity at 24 h, 10 μM ([5]; HepG2 cells, 10 μM, 24 h, MTT, read-out: inhibition of cell viability (rate)) [%] | cytotoxicity at 24 h, 20 μM ([5]; HepG2 cells, 20 μM, 24 h, MTT, read-out: inhibition of cell viability (rate)) [%] | cell viability with increasing concentrations [6] | expression of caspase-8, Bax and FASL [2] | cytotoxicity at 24 h, 5 μM [5] [%] | cytotoxicity at 24 h, 10 μM [5] [%] | cytotoxicity at 24 h, 20 μM [5] [%] | cytotoxicity according to concentration [6]
1 | CC[C@H](/C=C/[C@@H](C)[C@H]1CC[C@H]2[C@@H]3CC=C4C[C@@H](O)CC[C@]4(C)[C@H]3CC[C@]12C)C(C)C [stigmasterol] | shrinkage | significantly condensed | remarkably reduced | upregulates | downregulates | upregulate | increased | 26.87 | ~40 | ~43 | ~54 | dose-dependent decrease | – | – | – | – | –
2 | CCC(CCC(C)C1CCC2C3CCC4(O)CC(O)CCC4(C)C3CCC12C)C(C)C (stereo not drawn) [5β-hydroxysitostanol] | shrinkage | significantly condensed | remarkably reduced | – | – | upregulate | increased | 25.83 | – | – | – | dose-dependent decrease | upregulates | ~6 | ~9 | ~15 | no cytotoxicity
